A word on the IC50: it is the midpoint of a concentration-inhibition curve. A word on the Cmax: it is the highest concentration seen after dosing. A word on the Papp A→B: it is the apparent permeability from the apical to the basolateral side of a cell layer. Lower therefore signals slow passage. Broadly, the Papp B→A is how fast a substance crosses the layer from the basolateral side.

In series [1] the target is T1, DAO (Sus scrofa, UniProt Q9TRC7).
T1 construct: purchased Sigma
T1 sequence (Q9TRC7 25-755): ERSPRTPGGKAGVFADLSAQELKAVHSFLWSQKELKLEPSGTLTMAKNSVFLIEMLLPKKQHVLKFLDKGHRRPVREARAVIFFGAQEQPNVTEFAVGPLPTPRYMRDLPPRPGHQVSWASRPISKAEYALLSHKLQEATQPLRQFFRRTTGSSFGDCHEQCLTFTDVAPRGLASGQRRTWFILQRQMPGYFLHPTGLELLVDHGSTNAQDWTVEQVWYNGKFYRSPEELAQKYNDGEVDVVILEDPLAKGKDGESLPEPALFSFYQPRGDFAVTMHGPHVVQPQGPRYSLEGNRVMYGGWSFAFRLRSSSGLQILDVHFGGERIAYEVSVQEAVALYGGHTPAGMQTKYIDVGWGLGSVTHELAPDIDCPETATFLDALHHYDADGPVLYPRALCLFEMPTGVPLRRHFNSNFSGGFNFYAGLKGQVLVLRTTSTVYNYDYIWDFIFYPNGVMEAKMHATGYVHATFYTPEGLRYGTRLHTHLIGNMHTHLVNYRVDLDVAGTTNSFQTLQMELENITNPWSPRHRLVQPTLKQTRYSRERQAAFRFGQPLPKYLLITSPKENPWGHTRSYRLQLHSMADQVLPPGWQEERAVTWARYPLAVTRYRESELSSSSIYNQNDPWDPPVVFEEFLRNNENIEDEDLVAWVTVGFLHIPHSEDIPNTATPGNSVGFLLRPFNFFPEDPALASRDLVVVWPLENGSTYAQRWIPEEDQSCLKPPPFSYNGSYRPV
As to the kind of experiment: biochemical. The following applies: n = 2 individual values.
Procedure: (§1) All amine oxidase assays were performed with concentrations as above. MAO-A and MAO-B enzymes were purchased from Promega and Sigma, respectively. The catalytic activity of MAO-A and MAO-B was determined using the Promega MAO-Glo assay kit (substrate included), with clorgyline and deprenyl as positive controls, respectively. DAO was purchased from Sigma and the catalytic activity was determined using the Promega ROS-Glo assay kit, with aminoguanidine as the positive control.

Series [2] in a line: In vivo PK in mice. Further details: species or system mouse.
Procedure: Female BALB/c or CD1 mice (Charles River Laboratories) at 6 weeks of age were used for the PK analyses. The mice were dosed orally by gavage (50 mg/kg in dimethyl sulfoxide (DMSO)/water 1:19 v/v; n = 21) or intravenously in the tail vein (10 mg/kg in DMSO/Tween20/saline 10:1:89 v/v/v; n = 24). […] Three mice were used per time point per route. They were placed under halothane or isoflurane anesthesia, and blood for plasma preparation was taken by terminal cardiac puncture into heparinized syringes. Plasma samples were snap-frozen in liquid nitrogen and then stored at −80 °C prior to analysis.
Series [3] concerns the target T2, MAO-B (Homo sapiens, UniProt P27338).
T2 construct: purchased Sigma
T2 sequence (P27338 1-520): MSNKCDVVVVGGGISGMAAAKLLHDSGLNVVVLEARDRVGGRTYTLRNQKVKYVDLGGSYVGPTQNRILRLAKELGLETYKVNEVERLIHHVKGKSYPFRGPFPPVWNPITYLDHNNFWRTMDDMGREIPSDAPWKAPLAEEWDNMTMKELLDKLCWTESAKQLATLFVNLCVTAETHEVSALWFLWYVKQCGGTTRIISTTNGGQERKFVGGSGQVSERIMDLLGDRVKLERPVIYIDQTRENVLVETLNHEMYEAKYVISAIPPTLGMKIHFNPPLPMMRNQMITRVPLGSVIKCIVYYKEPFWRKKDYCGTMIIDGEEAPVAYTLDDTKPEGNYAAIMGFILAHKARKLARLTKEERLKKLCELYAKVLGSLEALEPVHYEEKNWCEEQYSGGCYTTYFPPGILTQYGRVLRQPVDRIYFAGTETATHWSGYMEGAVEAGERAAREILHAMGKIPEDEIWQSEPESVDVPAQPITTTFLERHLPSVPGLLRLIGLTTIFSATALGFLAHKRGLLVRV
As to the kind of experiment: MAO-B assay (MAO-Glo). The series is classed as biochemical. The following applies: n = 2 individual values.
Procedure: as §1

For series [4], the target named is T3, LOX (Sus scrofa, UniProt P45845).
T3 construct: LOX enzyme was extracted from pig skin by the method of Shackleton and Hulmes; from tissue; host or cells: pig skin
T3 sequence (P45845 1-249): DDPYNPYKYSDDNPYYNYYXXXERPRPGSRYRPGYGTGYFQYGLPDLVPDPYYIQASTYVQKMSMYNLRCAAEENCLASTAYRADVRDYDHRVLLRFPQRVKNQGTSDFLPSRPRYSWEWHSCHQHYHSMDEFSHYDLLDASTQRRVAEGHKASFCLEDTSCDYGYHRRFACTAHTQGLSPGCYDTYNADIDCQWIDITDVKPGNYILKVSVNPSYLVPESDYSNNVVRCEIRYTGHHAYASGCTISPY
In words: LOX enzyme activity assay (HRP-coupled fluorescent, cadaverine substrate).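 Also: LOX isolated from porcine skin, nine-point dilution series starting at 100 µM, 20 min preincubation with enzyme, BAPN serving as positive control.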 The series is classed as biochemical, pig.
Procedure: LOX enzyme was extracted from pig skin by the method of Shackleton and Hulmes.[24] LOX catalytic activity was determined using a horseradish peroxidase (HRP)-coupled fluorescent assay previously described,[19] with cadaverine hydrochloride as a substrate, BAPN as positive control, and a preincubation time of 20 min with nine dilutions from a top concentration of 100 μM.

Series [5] is described as follows: MLM stability assay. The following applies: percentage of compound remaining after 30 min; 10 μM. The series is classed as in vitro ADME, mouse.
Procedure: Mouse liver microsomes (BALB/c) were purchased from Tebu-bio, and the assay was performed by methods previously described.[19] Inhibitors at 10 μM concentration incubated with the microsomes were assessed at 0, 15, and 30 min. Control samples containing no microsomes and no cofactors were also assessed at 0 and 30 min. Samples were extracted by protein precipitation and centrifugation for 20 min in a refrigerated centrifuge (4 °C) at 3700 rpm. The supernatant was analyzed by LCMS/MS for % metabolized over time.
A short description of series [6]: Caco-2 permeability assay. Particulars: human. The series is classed as in vitro ADME.
Where [7] appears, read: mouse plasma, single oral gavage dose 50 mg/kg.

Turning to `CS(=O)(=O)c1cc(-c2ccccc2)cc(S(=O)(=O)c2ccc(CN)s2)c1` [9f], the IC50 in series [1] is greater than 100 µM.
On to `Cc1ccc(-c2cc(S(=O)(=O)c3ccc(CN)s3)ccc2S(C)(=O)=O)cc1.Cl` [9l, (5-((4′-Methyl-6-(methylsulfonyl)-[1,1′-biphenyl]-3-yl)sulfonyl)thiophen-2-yl)methanamine Hydrochloride], for which, in series [1], the IC50 is greater than 100 µM. In series [2] (setting [7]), the “AUC(PO)” value was found to be 12 µM·h and the Cmax stood at 9.4 µM. In addition, the “F (oral bioavailability)” value in series [2] (mouse, PO 50 mg/kg vs IV 10 mg/kg) is 74%. Besides, in series [2] (mouse, intravenous 10 mg/kg), the “CL(IV)” value stood at 106 mL/min/kg and the “t1/2(IV)” value was 24 min. For the same compound, in series [3], the IC50 was greater than 100 µM. For the same compound, the “LOX inhibition (in words)” value in series [4] is on record as “sub-micromolar”. In series [5], the “MLM stability (%)” value was determined as 95%. This compound also showed a Papp A→B in series [6] (A → B) of 18 ×10⁻⁶ cm/s. In addition, the basolateral-to-apical permeability (Papp B→A) in series [6] (B → A) is 25 ×10⁻⁶ cm/s.

The values are drawn from PMC6937593, “Anti-metastatic Inhibitors of Lysyl Oxidase (LOX): Design and Structure–Activity Relationships” (Journal of Medicinal Chemistry, 2019).
